Experimental findings from patent US20210220340A1, “COMPOSITION FOR PREVENTION OR TREATMENT OF NEURODEGENERATIVE DISEASE” (THE ASAN FOUNDATION, priority 2018, published 2021) are described below.

Some results are limits rather than exact numbers.

The subject of test [1] is mouse pericytes. Kind of test: Zinc concentration in pericytes (Zinpyr-1 fluorescence). It counts as cell-based. An excerpt: FIG. 20 is a set of confocal microscope images of groups of mouse pericytes, which are not treated (CTL) or treated with finally-selected amlexanox (AMX) (PDEi), in which, to measure a zinc concentration, fluorescence intensity was detected by treating the cells with a fluorescent dye (Zinpyr-1) for detecting zinc ions.

For test [2], the system named is P301L tau. Kind of test: Tau accumulation on AMX treatment (western blotting). It counts as cell-based. As to the method:
(§1) Each type of cell was cultured under the culture conditions, a cell culture was restored, followed by preparing a particulate fraction in a 50 mM Tris buffer. Proteins obtained from the cell culture developed in a SDS polyacrylamide gel, transferred to an immobilon-P membrane (Millipore, USA), and reacted with antibodies overnight. Next day, western blots were washed, reacted with peroxidase-linked secondary antibodies at room temperature for 1 hour, followed by staining bands with 4-chloro-1-naphthol.
(§2) FIG. 16 is a graph representing the percent activity (% activity) according to the concentrations of finally selected amlexanox (AMX) for various PDE isoforms, and FIGS. 17 and 18 show western blotting images representing the amyloid beta expression pattern and G93A SOD-1 and P301L tau expression when amyloid beta-accumulated pericytes and astrocytes are treated with the finally selected amlexanox (AMX).

Test [3] has as its system G93A SOD-1. Kind of test: G93A SOD-1 accumulation on AMX treatment (western blotting). It counts as cell-based. Here is the method:
as §1, §2
Background: A western blot detects proteins with antibodies after separation by electrophoresis.

Test [4] relates to astrocytes. The test can be described thus: H2O2 oxidative damage cell death in astrocytes (LDH method). The note with it: H2O2, after 24 hours. It counts as cell-based. As to the method:
For astrocyte culture, first, cerebral cortices (neocortices) were dissociated from murine fetuses (3 weeks old), and the obtained cortical tissue was divided into single cells. […] New cells were cultured and used each time without passaging.
Specifically, cell death caused by oxidative damage was induced by injecting H2O2 into astrocytes, a cell culture model similar to the animal model with a neurodegenerative disease such as Alzheimer's disease or Lou Gehrig's disease was manufactured. To confirm the cell protective effect of amlexanox (AMX) in the cell model manufactured as described above, an untreated H2O2 control and an experimental group produced by administering amlexanox (AMX) into the untreated H2O2 control were prepared, and after 24 hours, cell death was quantitatively assessed by a LDH method.

Test [5] deals with all PDE isoforms. Kind of test: HTS using all PDE isoforms as targets. It counts as biochemical. Here is the method:
Compounds included in the library of 800 FDA-approved drugs were diluted 1/4 from a concentration of 100 μM and dispensed into each well in 96-well plates, and mixed with a PDE reactant to allow a PDE reaction with the drug for 1 hour at a constant temperature.
The experiment was carried out in the same manner as used in screening of the FDA-approved drug library. […] Each of the screening library drugs were diluted 1/4 from 100 μM and dispensed into each well in 96-well plates, and mixed with a PDE reactant, followed by allowing a reaction between the drug and PDE for 1 hour for storage. After a stop solution was mixed with a AMP detection agent, the mixture was dispensed at 20 μl per well to allow a reaction for 10 minutes, followed by immediately measuring luminescence, and the experiment was performed according to a protocol provided by the kit used herein.
The first selection started with PDE3 as a target, and after candidate drugs were selected, all PDE isoforms were tested.

Test [6] concerns mouse pericytes. The test can be described thus: Lysosome pH in bafilomycin A1-treated pericytes (LysoSensor, confocal microscope). The note with it: cells alkalized by bafilomycin A1. It counts as cell-based. An excerpt:
A system that can visualize changes in intracellular lysosome pH with LysoSensor, which is a pH-sensitive lysosomal dye, in mouse pericytes using a confocal microscope was established (refer to Example 6) to observe whether amlexanox (AMX) is involved in the pH change of lysosomes in cells.
FIG. 19 is a set of time-dependent confocal microscope images (left) of mouse pericytes when being treated with Bafilomycin A1, which is a vATPase inhibitor, and then stained with LysoSensor, and quantified data (right) thereof.
Here, the images on the left side of FIG. 19 are obtained by treating mouse pericytes with bafilomycin A1, which is a vATPase inhibitor, and analyzing the cells using LysoSensor over time by a confocal microscope (top), and by treating the bafilomycin A1-treated mouse pericytes with the finally selected amlexanox (AMX) and analyzing the cells using LysoSensor over time by a confocal microscope (bottom).

Turning to `CC(C)c1ccc2oc3nc(N)c(C(=O)O)cc3c(=O)c2c1` [amlexanox, 2-amino-7-isopropyl-5-oxo-5H-[1]benzopyrano[2,3-b] pyridine-3-carboxylic acid], in test [1], the “concentration of zinc in the cell” value was “restored and increased to a normal level”. Besides, the “accumulation of toxic protein Tau” value in test [2] is recorded as “reduced”. Besides, the “accumulation of toxic protein G93A SOD-1” value in test [3] is “reduced”. Besides, in test [4], the cell death result is given as “up to 40%”. In addition, the “reducing efficacy for all PDE isoforms” value in test [5] was “excellent reducing efficacy”. The “time to restore (acidify) the lysosome pH environment to the original state” value in test [6] is reported as at most 60 minutes.
